Measured values taken from patent publication US20200352886A1 (priority 2009, published 2020).

Experiments:
Sprague-Dawley rats = details: rat, in vivo
Gottingen Minipigs = details: minipig, in vivo
Method: The broad aim of the study was to evaluate the potential dermal toxicity of DMSO when administered topically to four groups of Gottingen Minipigs® for 52 weeks at concentrations of 0, 9%, 45.5% and 90% (w/w) and to evaluate reversibility, progression, or delayed appearance of any observed changes following a 1-month postdose observation period. Two additional groups of Gottingen Minipigs® were dosed topically for 39 weeks at 0% and 90% followed by a 4-month recovery post dose observation period.
Four groups consisting of six animals/sex/group received DMSO at respective dose levels of 0, 9, 45.5, or 90% (w/w) by dermal application three times a day for 364 consecutive days. Following 52 weeks of administration, two animals/sex at 0, 9, 45.5, and 90% dose levels were maintained for a 4-week recovery period. Two additional groups consisting of six animals/sex/group received the control or 90% (w/w) DMSO by dermal application three times a day for 273 consecutive days. Following 39 weeks of administration, two animals/sex at 0 and 90% dose levels were maintained for a 4 month recovery period. […]
Clinical observations were conducted weekly. At the end of the each treatment and recovery period, necropsy examinations were performed, organ weights were recorded, and selected tissues were microscopically examined. […]

[1] = system: subjects with primary osteoarthritis of the knee; experiment: 12-week randomized controlled trial: safety (adverse events, laboratory parameters, ocular examination); type: in vivo, human
Method: Study Design: Eligible subjects were stratified by the investigator at baseline into stratum 1 (no pain and normal radiological examination in the non-study knee) or stratum 2 (pain and/or abnormal radiological examination in the non-study knee), and then randomized into the trial by receiving the next numbered study kit at that clinic for that stratum. […] Subjects applied 40 drops of solution (approximately 1.2 mL) around the entire circumference of the study knee, without massage, 4 times daily, and took one study tablet daily for up to 12 weeks.
Each subject completed a full efficacy assessment questionnaire after randomization at baseline and at 4, 8 and 12 weeks, or at drop out. […] The POHA asked the question, “Considering all the ways your osteoarthritic (study) knee and its treatment affect you, including both positive and negative effects, how would you rate your overall state of health in the past 48 hours?” Secondary efficacy variables were WOMAC stiffness and patient global assessment (“PGA”) of knee osteoarthritis. The PGA asked the question, “How has the osteoarthritis in your study joint been over the last 48 hours?” The POHA and PGA were scored on a 5-point Likert scale. There was no assessment of the non-treated knee. […] Adverse events were categorized according to Coding Symbols for Thesaurus of Adverse Reaction Terms (“COSTART”). Blood and urine samples were obtained for routine laboratory analysis at baseline, 4 and 12 weeks. Ocular examination (visual acuity test, slit lamp examination and lens assessment) was conducted at the baseline and final visit.
For a missing final score, last observation was carried forward (“LOCF”). Safety analyses were performed on all subjects who received even one dose of either study medication. There was no imputation of missing safety data.

[2] = cited from earlier work
[3] = system: symptomatic primary osteoarthritis of the knee; experiment: 12-week double-blind, double-dummy randomized controlled trial: efficacy (WOMAC, POHA, PGA); type: in vivo, human; details: 12 weeks
Method: This randomized, double-blind, double-dummy, placebo-, vehicle- and active-controlled study was conducted at 40 outpatient centers in Canada and 21 centers in the United States following approval by the appropriate institutional review boards. Eligible subjects, after written informed consent, included men and non-pregnant women aged 40-85 with primary OA of the knee based on (i) standard radiological criteria for OA (Altman, R D, et al., Atlas of individual radiographic features in osteoarthritis. […] J Rheumatol. 1988 December; 15(12):1833-40). All knee films were reviewed by a single radiologist and each compartment was scored (none=1, mild=2, moderate=3, severe=4). Only one knee was treated; where both knees met all entry criteria, the more painful knee (or dominant knee if they scored the same) was selected. Standard exclusion criteria were employed, as described in Roth S H, Shainhouse J Z. Efficacy and safety of a topical diclofenac solution ([…]®) in the treatment of primary osteoarthritis of the knee: a randomized, double-blind, vehicle-controlled clinical trial. Arch Intern Med. 2004; 164:2017-23. Study Design: […] Each study kit contained topical solution and oral tablets for one of the five treatment regimens: […] Topical Diclofenac Solution plus oral diclofenac tablets. […] Concomitant analgesic and anti-inflammatory medications, including over the counter NSAIDs and other analgesics, were prohibited. Continuation of stable treatment with glucosamine, chondroitin, anti-depressants or a proton pump inhibitor (previous 90 days), or low-dose (<325 mg/day) acetylsalicylic acid (previous 30 days) was permitted. Acetaminophen was provided, and permitted (up to four 325-mg caplets per day) except during the 3 days before each efficacy assessment. Other topical products on the knee, including skin emollients, were prohibited. A patient with a gastrointestinal adverse event was allowed to start a proton pump inhibitor. Compliance with the treatment regimen was assessed by weighing the solution bottles and counting study tablets at each clinic visit. […] of randomized placebo controlled clinical trials. J Rheumatol. 2006; 33:1841-4), and patient overall health assessment (“POHA”). The POHA asked the question, “Considering all the ways your osteoarthritic (study) knee and its treatment affect you, including both positive and negative effects, how would you rate your overall state of health in the past 48 hours?” Secondary efficacy variables were WOMAC stiffness and patient global assessment (“PGA”) of knee osteoarthritis. The PGA asked the question, “How has the osteoarthritis in your study joint been over the last 48 hours?” The POHA and PGA were scored on a 5-point Likert scale. There was no assessment of the non-treated knee. […] Adverse events were categorized according to Coding Symbols for Thesaurus of Adverse Reaction Terms (“[…]”). Blood and urine samples were obtained for routine laboratory analysis at baseline, 4 and 12 weeks. Ocular examination (visual acuity test, slit lamp examination and lens assessment) was conducted at the baseline and final visit. All planned analyses were specified a priori. […] Statistical tests were two-sided at the 5% level of significance. All efficacy analyses were by analysis of covariance of the change in score from baseline to landmark final assessment, with baseline score as the covariate. Subjects in both randomization strata were combined for all analyses. Secondary comparisons included topical diclofenac vs. placebo for the secondary variables, and topical diclofenac vs. DMSO vehicle and DMSO vehicle vs. placebo for all variables. A post hoc efficacy analysis compared topical diclofenac vs. oral diclofenac and topical diclofenac+oral diclofenac vs. oral diclofenac. For a missing final score, last observation was carried forward (“LOCF”). Safety analyses were performed on all subjects who received even one dose of either study medication. There was no imputation of missing safety data. […]

[4] = clinical trials, combination compared to oral diclofenac alone
[5] = normal at baseline to above upper limit of normal
[6] = 50 mg of oral diclofenac TID, label of Voltaren Gel
[7] = mean (SD), maximum score 4, mITT

In the case of `C[S+](C)[O-]` [DMSO, Dimethyl sulfoxide], the ophthalmoscopic abnormalities (Sprague-Dawley rats) is reported as “No test article-related ophthalmoscopic abnormalities”, the ophthalmoscopic abnormalities (Gottingen Minipigs) is reported as “no test article-related ophthalmoscopic abnormalities of any kind” and the “risk for development of lens opacities or refractive index changes” value (Gottingen Minipigs) is reported as “no increased risk for development of lens opacities or refractive index changes”.
For `O=C(O)Cc1ccccc1Nc1c(Cl)cccc1Cl` [ODiclo, diclofenac], the Abdominal pain ([1]; 12 weeks) was 11 (7.3) number (%) of subjects, the “Abnormal taste sensation or odor” value ([1]; 12 weeks) was 0 (0.0) number (%) of subjects and the Any adverse event ([1]; 12 weeks) was 94 (62.3) number (%) of subjects. For the same molecule, the “Any digestive system event” value ([1]; 12 weeks) was 36 (23.8) number (%) of subjects, the Any skin/appendages event ([1]; 12 weeks) was 11 (7.3) number (%) of subjects and the “Contact dermatitis (application site)” value ([1]; 12 weeks) was 1 (0.7) number (%) of subjects. For the same molecule, the “Contact dermatitis with vesicles (application site)” value ([1]; 12 weeks) was 1 (0.7) number (%) of subjects, the Diarrhea ([1]; 12 weeks) was 7 (4.6) number (%) of subjects and the “Dry skin (application site)” value ([1]; 12 weeks) was 4 (2.6) number (%) of subjects. The Dyspepsia ([1]; 12 weeks) was 6 (4.0) number (%) of subjects, the Nausea ([1]; 12 weeks) was 3 (2.0) number (%) of subjects and the “Pruritis (application site)” value ([1]; 12 weeks) was 0 (0.0) number (%) of subjects. For the same molecule, the Rash ([1]; 12 weeks) was 0 (0.0) number (%) of subjects, the Rectal hemorrhage ([1]; 12 weeks) was 0 (0.0) number (%) of subjects and the incidence of hypertension ([1]; 12 weeks) was 1.3%. The “increase in any liver enzyme to three times the upper limit of normal” value ([1]; 12 weeks) was 2 subjects, the Abnormal vision ([1]; 12 weeks, other system event) was 4 (2.6) number (%) of subjects and the Accidental injury ([1]; 12 weeks, other system event) was 4 (2.6) number (%) of subjects. For the same molecule, the Arthralgia ([1]; 12 weeks, other system event) was 12 (7.9) number (%) of subjects, the Back pain ([1]; 12 weeks, other system event) was 11 (7.3) number (%) of subjects and the Conjunctivitis ([1]; 12 weeks, other system event) was 3 (2.0) number (%) of subjects. The Headache ([1]; 12 weeks, other system event) was 26 (17.2) number (%) of subjects, the Pain ([1]; 12 weeks, other system event) was 8 (5.3) number (%) of subjects and the Respiratory disorder ([1]; 12 weeks, other system event) was 8 (5.3) number (%) of subjects. The “ALT, mean change” value ([1]; baseline to final, mean (SD)) was 7.2 (25.3) U/L, the “AST, mean change” value ([1]; baseline to final, mean (SD)) was 2.5 (10.9) U/L and the “Creatinine, mean change” value ([1]; baseline to final, mean (SD)) was 3.1 (11.0) μmol/L. The “Hemoglobin, mean change” value ([1]; baseline to final, mean (SD)) was −3.8 (7.1) g/L, the abnormal creatinine [1, 4] was 7% and the abnormal hemoglobin [1, 4] was 9%. The abnormal urea [1, 4] was 12%, the “rate of rectal hemorrhage” value ([1]; clinical trials, combination of topical and oral diclofenac compared to oral diclofenac alone) was “less than 1%” and the “ALT, normal to abnormal” value [1, 5] was 26 (18.8) N (%). For the same molecule, the “Creatinine, normal to abnormal” value [1, 5] was 10 (7.2) N (%), the “Hemoglobin, normal to abnormal” value ([1]; normal at baseline to below lower limit of normal) was 8 (5.8) N (%) and the serious adverse events ([1]; number of events per arm, 12 weeks) was 1. The “mean AUC0-24” value [2, 6] was 3890 ng·h/mL, the “mean Cmax” value [2, 6] was 2270 ng/mL and the “predicted level of diclofenac reported with oral diclofenac” value ([2]; oral) was 1500 ng/mL. The “PGA (patient global assessment of the study knee), change in score” value [3, 7] was −1.42 (1.29), the “POHA (patient overall health assessment), change in score” value [3, 7] was −0.88 (1.31) and the “WOMAC Stiffness, change in score” value ([3]; mean (SD), maximum score 8, mITT) was −2.07 (2.02). For the same molecule, the “WOMAC Pain, change in score (final score minus baseline score)” value ([3]; mean (SD), maximum score 20, mITT) was −6.4 (4.1), the “WOMAC Physical Function, change in score” value ([3]; mean (SD), maximum score 68, mITT) was −17.5 (14.3) and the “improvement in variable score” value ([3]; oral diclofenac group) was 40-48%.
